Inhibition data for 1 molecule are collected here from patent US9695192B2, “Fused heterocyclic compounds as ion channel modulators” (GILEAD SCIENCES, INC., priority 2011, dated 2017).

Holding throughout (format): cell-based
Assay [1] addresses wild-type human cardiac sodium channel, hNav1.5 (Homo sapiens, UniProt Q14524). In words: Late INa screening assay (QPatch whole cell patch clamp, tefluthrin-enhanced late sodium current). Particulars: HEK293 hNav1.5, late INa activated with 10 μM Tefluthrin. Put shortly:
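Automated whole-cell patch clamp of HEK293 cells stably expressing hNav1.5 (no β subunits), 23-25 °C. Late current enhanced by 10 μM tefluthrin, 250 ms steps to −20 mV from −120 mV at 0.1 Hz, measured 225-250 ms. Compounds typically 1 μM, three additions over 7-8 min; % block normalised to 0 Na baseline.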
(In patch-clamp work, channel activity is measured electrically.)

In assay [2] the target is hNav1.5 Peak INa (Homo sapiens, UniProt Q14524). In words: Peak INa screening assay (tonic block and use-dependent block). The protocol:
The assay uses an HEK293 (human embryonic kidney) cell line heterologously expressing the wild-type human cardiac sodium channel, hNav1.5, purchased from Millipore (Billerica, Mass.). No beta subunits were coexpressed with the Na channel alpha subunit. Cells are maintained with standard tissue culture procedures and stable channel expression is maintained with 400 μg/mL Geneticin in the culture medium. […] Experiments are carried out at 23-25° C. […] Currents through open sodium channels are automatically recorded and stored in the Sophion Bioscience Oracle database (Sophion Bioscience, Copenhagen, Denmark). Analysis is performed using QPatch Assay and database software and data are compiled in Excel. Compound stocks are routinely made by the Gilead Sample Bank in plastic vials to 10 mM in dimethyl sulfoxide (DMSO). […] Stocks are sonicated as necessary. […] Compounds are diluted in extracellular solution to 1 μM in glass vials and then transferred to glass well plates before robotic addition to the cells. […] Good separation between the concentrations of test compound to reduce late and peak INa is beneficial to enable separation of the desired effect to reduce late INa-induced electrical and mechanical dysfunction from the undesired effect to reduce peak INa, which can lead to slowing or block of conduction of electrical excitation in the heart. It is contemplated that the compounds of Formula I avoid significant block of peak INa. […] Analysis of peak INa generally requires correction for rundown before determining the % block of peak current by the tested compound. […] Use-dependent block refers to the accumulation of block with increased frequency of channel activation. […] It is therefore expected that reduction of peak INa by compounds of this disclosure will be greater at high heart rates, such as those during tachyarrhythmias, than at normal heart rates. […] The intracellular solution used for the Peak INa assay is the same as outlined for the Late INa assay (see above). […] After establishing the whole cell recording configuration, channels were stimulated to open with low frequency stimulation (0.1 Hz) for 7 minutes so that the recording can be monitored and the extent to which the recording has stabilized can be assessed. […] Both TB and UDB were analyzed by incorporating rundown correction for the peak INa and UDB as calculated by compensating for the small use-dependent effect of the stimulation protocol on peak INa in the absence of compound.

Assay [3] has as its target T1, human Nav1.1 (Homo sapiens, UniProt P35498).
T1 construct: expressed in transfected cells; host or cells: HEK293, transient transfection (Qiagen Superfect), α1:β1:β2 at 10:1:1
In words: Nav1.1 use-dependent block, whole-cell voltage clamp, 10 Hz pulse train. The conditions noted are these: Chantest conditions, read-out: NAV1.1 UDB-10 HZ % Inhibition.

Where two headings read alike, the source gives them in different places.

Chain of hNav1.5 Peak INa (Q14524 whole entry): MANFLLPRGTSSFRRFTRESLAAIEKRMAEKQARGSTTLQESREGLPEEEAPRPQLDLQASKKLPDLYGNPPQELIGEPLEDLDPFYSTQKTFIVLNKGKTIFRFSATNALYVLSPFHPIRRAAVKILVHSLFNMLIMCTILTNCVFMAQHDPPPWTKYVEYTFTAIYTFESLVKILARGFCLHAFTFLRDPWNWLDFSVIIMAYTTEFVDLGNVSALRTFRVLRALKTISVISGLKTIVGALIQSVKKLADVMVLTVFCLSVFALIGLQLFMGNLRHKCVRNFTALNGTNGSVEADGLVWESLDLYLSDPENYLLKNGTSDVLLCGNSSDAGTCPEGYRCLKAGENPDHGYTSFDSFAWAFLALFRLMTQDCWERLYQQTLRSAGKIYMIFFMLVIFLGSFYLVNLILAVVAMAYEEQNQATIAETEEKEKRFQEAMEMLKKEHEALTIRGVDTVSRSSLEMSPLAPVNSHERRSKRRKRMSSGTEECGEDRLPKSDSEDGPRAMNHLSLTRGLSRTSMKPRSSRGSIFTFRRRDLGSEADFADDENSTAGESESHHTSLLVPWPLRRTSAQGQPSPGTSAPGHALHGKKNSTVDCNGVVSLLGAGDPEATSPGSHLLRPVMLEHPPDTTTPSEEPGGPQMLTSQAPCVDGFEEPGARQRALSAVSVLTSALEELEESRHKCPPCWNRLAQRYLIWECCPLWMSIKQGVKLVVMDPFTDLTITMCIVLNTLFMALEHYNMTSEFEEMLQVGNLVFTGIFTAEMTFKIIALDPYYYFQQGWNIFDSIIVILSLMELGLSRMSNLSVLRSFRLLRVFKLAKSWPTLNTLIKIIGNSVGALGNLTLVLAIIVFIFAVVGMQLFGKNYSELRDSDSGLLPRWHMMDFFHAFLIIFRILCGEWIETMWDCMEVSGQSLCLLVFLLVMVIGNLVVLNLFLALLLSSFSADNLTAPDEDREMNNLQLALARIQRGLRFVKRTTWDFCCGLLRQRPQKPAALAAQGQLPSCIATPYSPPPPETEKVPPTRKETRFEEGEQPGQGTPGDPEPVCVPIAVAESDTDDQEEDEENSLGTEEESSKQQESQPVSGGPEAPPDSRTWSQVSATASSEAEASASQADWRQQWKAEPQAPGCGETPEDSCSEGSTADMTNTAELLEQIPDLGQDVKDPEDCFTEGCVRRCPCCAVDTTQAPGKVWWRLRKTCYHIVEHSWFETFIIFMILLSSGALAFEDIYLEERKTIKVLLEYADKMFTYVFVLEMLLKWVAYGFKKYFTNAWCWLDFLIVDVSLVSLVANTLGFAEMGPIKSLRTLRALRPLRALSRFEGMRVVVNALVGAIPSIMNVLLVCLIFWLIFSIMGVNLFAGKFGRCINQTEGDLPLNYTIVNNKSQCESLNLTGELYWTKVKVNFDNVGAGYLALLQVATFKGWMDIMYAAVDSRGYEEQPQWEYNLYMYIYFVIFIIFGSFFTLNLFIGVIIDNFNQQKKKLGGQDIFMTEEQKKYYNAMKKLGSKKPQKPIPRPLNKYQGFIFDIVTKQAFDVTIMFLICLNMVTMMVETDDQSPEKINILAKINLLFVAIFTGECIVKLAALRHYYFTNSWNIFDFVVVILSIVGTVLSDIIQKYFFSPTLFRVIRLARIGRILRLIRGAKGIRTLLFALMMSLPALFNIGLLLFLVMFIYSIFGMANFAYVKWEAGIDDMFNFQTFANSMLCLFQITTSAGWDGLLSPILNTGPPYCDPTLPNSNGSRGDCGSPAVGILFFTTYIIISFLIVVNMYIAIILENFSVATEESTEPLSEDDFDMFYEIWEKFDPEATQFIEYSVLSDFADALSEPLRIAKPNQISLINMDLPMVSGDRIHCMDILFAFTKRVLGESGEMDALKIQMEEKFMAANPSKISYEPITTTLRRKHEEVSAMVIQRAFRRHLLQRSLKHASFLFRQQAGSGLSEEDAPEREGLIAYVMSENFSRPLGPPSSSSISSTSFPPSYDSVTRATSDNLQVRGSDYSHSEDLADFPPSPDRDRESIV
Chain of wild-type human cardiac sodium channel, hNav1.5 (Q14524 whole entry): as above

Turning to `FC(F)(F)c1ccc(-c2ccc3c(c2)C(NCc2ccccc2)=NCCO3)cc1` [II-2, N-benzyl-7-(4-(trifluoromethyl)phenyl)-2,3-dihydrobenzo[f][1,4]oxazepin-5-amine], the inhibition at 1 µM in assay [1] is 41%; in assay [2] (at 1 μM, 3 Hz stimulation, holding potential −100 mV, read-out: Peak UDB (use-dependent block of peak INa) % Inhibition), 57%; in assay [2] (read-out: Peak TB (tonic block of peak INa) % Inhibition), 27%; in assay [3], 9%.

For orientation: inhibition means the change of the read-out against control, counted positive when it falls.
